This note sets out measurements from patent US20230212131A1, “COLLAGEN 1 TRANSLATION INHIBITORS AND METHODS OF USE THEREOF” (Anima Biotech Inc., priority 2020, published 2023).

The assay concerns collagen 1 (COL1). Put plainly: WI-38 collagen 1 inhibition assay. The assay is classed as cell-based, human. The note with it: Cellular EC50, WI-38 cells; values are classes of LogEC50. The procedure, abridged:
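WI-38 fibroblasts serum-starved (0.25% FBS 2 h, then none 24 h), then given a collagen induction cocktail together with compound. Cells fixed, immunostained for collagen I with DAPI counterstain, and imaged at 20×; per-cell fluorescence quantified by image analysis.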

Regarding `CN1CCC(C(=O)Nc2nc(-c3ccccc3Cl)cs2)CC1` [compound 324, N-[4-(2-chlorophenyl)thiazol-2-yl]-1-methyl-piperidine-4-carboxamide], the “COL1 Efficacy (LogEC50)” value is listed as “++ (++: −5 to −6)”.
On to `CS(=O)(=O)N1CCN(C23CC(C(=O)Nc4nc(-c5ccccc5Cl)cs4)(C2)C3)CC1` [Compound 418, N-(4-(2-chlorophenyl)thiazol-2-yl)-3-(4-(methylsulfonyl)piperazin-1-yl)bicyclo[1.1.1]pentane-1-carboxamide], for which the “COL1 Efficacy (LogEC50)” value is “++ (++: −5 to −6)”.
Consider `CN1CCC(Oc2ccc(C(=O)Nc3nc(-c4ccccc4Cl)cs3)nc2)CC1` [compound 439, N-(4-(2-chlorophenyl)thiazol-2-yl)-5-((1-methylpiperidin-4-yl)oxy)picolinamide], for which the “COL1 Efficacy (LogEC50)” value was “+++ (+++: <−6)”.
For `O=C(Nc1nc(-c2ccccc2Cl)cs1)C1CCC(N2CCOCC2)CC1` (centres unmarked) [compound 431], the “COL1 Efficacy (LogEC50)” value is “− (−: inactive)”.
Regarding `O=C(Nc1nc(-c2ccccc2Cl)cs1)c1ccc(C(=O)N2CCOCC2)cc1` [compound 384, N-(4-(2-chlorophenyl)thiazol-2-yl)-4-(morpholine-4-carbonyl)benzamide], the “COL1 Efficacy (LogEC50)” value was “++ (++: −5 to −6)”.
The result for `COc1ccc(C(=O)Nc2nc(-c3ccc(F)cc3Cl)cs2)cc1` [Compound 321, N-[4-(2-chloro-4-fluoro-phenyl)thiazol-2-yl]-4-methoxy-benzamide] reads “+++ (+++: <−6)”.
As for `COc1ccc(C(=O)Nc2nc(-c3cccnc3)cs2)cc1` [Compound 316, 4-methoxy-N-[4-(3-pyridyl)thiazol-2-yl]benzamide], the “COL1 Efficacy (LogEC50)” value is on record as “++ (++: −5 to −6)”.
As for `CS(=O)(=O)N1CCN(C2CCC(C(=O)Nc3nc(-c4ccccc4Cl)cs3)CC2)CC1` (single isomer, unassigned) [Compound 435, (1r,4r)-N-(4-(2-chlorophenyl)thiazol-2-yl)-4-(4-(methylsulfonyl)piperazin-1-yl)cyclohexane-1-carboxamide], the “COL1 Efficacy (LogEC50)” value is on record as “++ (++: −5 to −6)”.
On to `CC(=O)N1CCN(c2ccc(C(=O)Nc3nc(-c4ccccc4Cl)cs3)c(C)c2)CC1` [compound 473, 4-(4-acetylpiperazin-1-yl)-N-(4-(2-chlorophenyl)thiazol-2-yl)-2-methylbenzamide], for which the “COL1 Efficacy (LogEC50)” value is “+++ (+++: <−6)”.
The result for `O=C(Nc1nc(-c2ccccc2Cl)cs1)C1CC(C(=O)N2CCOCC2)C1` (centres unmarked) [compound 427] reads “− (−: inactive)”; that for `CN1CCC2(CCN(c3ccc(C(=O)Nc4nc(-c5ccccc5Cl)cs4)nc3)CC2)C1=O` [compound 452, N-(4-(2-chlorophenyl)thiazol-2-yl)-5-(2-methyl-1-oxo-2,8-diazaspiro[4.5]decan-8-yl)picolinamide], “+++ (+++: <−6)”; that for `O=C(Nc1nc(-c2ccccn2)cs1)c1ccc(N2CCOCC2)cc1` [Compound 370, 4-morpholino-N-[4-(2-pyridyl)thiazol-2-yl]benzamide], “+ (+: >−5)”.
As to `COc1ccc(C(=O)Nc2nc(-c3cc(C)cc(C)c3)cs2)cc1` [Compound 305, N-(4-(3,5-dimethylphenyl)thiazol-2-yl)-4-methoxybenzamide], the “COL1 Efficacy (LogEC50)” value is given as “++ (++: −5 to −6)”.
As for `CN1CC2(C1)CN(c1ccc(C(=O)Nc3nc(-c4ccccc4Cl)cs3)nc1)C2` [compound 459], the “COL1 Efficacy (LogEC50)” value is “− (−: inactive)”.
The result for `CN1CCC[C@@H](C(=O)N2CCN(c3ccc(C(=O)Nc4nc(-c5ccccc5Cl)cs4)nc3)CC2)C1` [Compound 485, (R)—N-(4-(2-chlorophenyl)thiazol-2-yl)-5-(4-(1-methylpiperidine-3-carbonyl)piperazin-1-yl)picolinamide] reads “+++ (+++: <−6)”.
The result for `O=C(Nc1nc(-c2ccccc2Cl)cs1)c1ccc(N2CCCC2=O)cn1` [compound 465] reads “− (−: inactive)”; that for `Cc1ccc(C(=O)Nc2nc(-c3cccnc3C)cs2)cn1` [Compound 344, 6-methyl-N-[4-(2-methyl-3-pyridyl)thiazol-2-yl]pyridine-3-carboxamide], “+++ (+++: <−6)”; that for `CC(=O)N1CCN(c2cc(C)c(C(=O)Nc3nc(-c4ccccc4Cl)cs3)c(C)c2)CC1` [compound 474], “− (−: inactive)”.
Consider `COc1ccc(C(=O)Nc2nc(-c3cnn(C)c3)cs2)cc1` [Compound 331, 4-methoxy-N-[4-(1-methylpyrazol-4-yl)thiazol-2-yl]benzamide], for which the “COL1 Efficacy (LogEC50)” value was “+ (+: >−5)”.
Consider `O=C(Nc1nc(-c2ccccc2Cl)cs1)c1ccc(C(=O)N2CCNCC2)cn1` [compound 451, N-(4-(2-chlorophenyl)thiazol-2-yl)-5-(piperazine-1-carbonyl)picolinamide], for which the “COL1 Efficacy (LogEC50)” value was “++ (++: −5 to −6)”.
For the compound `CN1CC2(CCN(c3ccc(C(=O)Nc4nc(-c5ccccc5Cl)cs4)nc3)CC2)C1` [compound 456, N-(4-(2-chlorophenyl)thiazol-2-yl)-5-(2-methyl-2,7-diazaspiro[3.5]nonan-7-yl)picolinamide], the “COL1 Efficacy (LogEC50)” value was “+++ (+++: <−6)”.
As to `COCc1cc(N2CCOCC2)ccc1C(=O)Nc1nc(-c2ccccc2Cl)cs1` [compound 436], the “COL1 Efficacy (LogEC50)” value was “− (−: inactive)”.
`O=C(Nc1nc(-c2cc(Cl)sc2Cl)cs1)c1ccc(Cl)cc1` [compound 311]: the “COL1 Efficacy (LogEC50)” value is recorded as “++ (++: −5 to −6)”.
As to `COc1cnc(C(=O)Nc2nc(-c3ccccc3Cl)cs2)cn1` [compound 330, N-[4-(2-chlorophenyl)thiazol-2-yl]-5-methoxy-pyrazine-2-carboxamide], the “COL1 Efficacy (LogEC50)” value is listed as “++ (++: −5 to −6)”.
The result for `CN1CCC(C(=O)N2CCN(c3ccc(C(=O)Nc4nc(-c5ccccc5Cl)cs4)nc3)CC2)C1` (centres unmarked) [Compound 482, N-(4-(2-chlorophenyl)thiazol-2-yl)-5-(4-(1-methylpyrrolidine-3-carbonyl)piperazin-1-yl)picolinamide] reads “+++ (+++: <−6)”.
For `Cc1ccc(C(=O)Nc2nc(-c3ccccc3N3CCC3)cs2)cn1` [compound 350, N-[4-[2-(azetidin-1-yl)phenyl]thiazol-2-yl]-6-methyl-pyridine-3-carboxamide], the “COL1 Efficacy (LogEC50)” value is “− (−: inactive)”.
For `Cc1ncc(C(=O)Nc2nc(-c3ccccc3Cl)cs2)cn1` [compound 320, N-[4-(2-chlorophenyl)thiazol-2-yl]-2-methyl-pyrimidine-5-carboxamide], the “COL1 Efficacy (LogEC50)” value is on record as “++ (++: −5 to −6)”.
Take `O=C(Nc1nc(-c2ccccc2Cl)cs1)C12CC(N3CCOCC3)(C1)C2` [Compound 416, N-(4-(2-chlorophenyl)thiazol-2-yl)-3-morpholinobicyclo[1.1.1]pentane-1-carboxamide]: the “COL1 Efficacy (LogEC50)” value is reported as “++ (++: −5 to −6)”.
Regarding `O=C(Nc1nc(-c2ccc(Cl)cc2Cl)cs1)c1ccc(F)cc1` [Compound 308, N-(4-(2,4-dichlorophenyl)thiazol-2-yl)-4-fluorobenzamide], the “COL1 Efficacy (LogEC50)” value is “++ (++: −5 to −6)”.
Take `CN(C(=O)c1ccc(N2CCOCC2)cn1)c1nc(-c2ccccc2Cl)cs1` [Compound 400, N-(4-(2-chlorophenyl)thiazol-2-yl)-N-methyl-5-morpholinopicolinamide]: the “COL1 Efficacy (LogEC50)” value is recorded as “++ (++: −5 to −6)”.
Take `COc1ccc(C(=O)Nc2nc(-c3ccccc3F)cs2)cc1` [Compound 336, N-[4-(2-fluorophenyl)thiazol-2-yl]-4-methoxy-benzamide]: the “COL1 Efficacy (LogEC50)” value is listed as “++ (++: −5 to −6)”.
On to `O=C(Nc1nc(-c2ccccc2Cl)cs1)c1ccc(Br)cc1` [compound 310], for which the “COL1 Efficacy (LogEC50)” value is reported as “+++ (+++: <−6)”.
The result for `Cc1ncccc1-c1csc(NC(=O)c2ccc(N3CCOCC3)nn2)n1` [compound 373, N-[4-(2-methyl-3-pyridyl)thiazol-2-yl]-6-morpholino-pyridazine-3-carboxamide] reads “+ (+: >−5)”; that for `COCc1ccccc1-c1csc(NC(=O)c2ccc(N3CCC(O)CC3)cn2)n1` [Compound 468, 5-(4-hydroxypiperidin-1-yl)-N-(4-(2-(methoxymethyl)phenyl)thiazol-2-yl)picolinamide], “+++ (+++: <−6)”; that for `COCCOc1ccccc1-c1csc(NC(=O)c2ccc(OC)cc2)n1` [Compound 328, 4-methoxy-N-[4-[2-(2-methoxyethoxy)phenyl]thiazol-2-yl]benzamide], “++ (++: −5 to −6)”.
For `C#CCCC1(CCN2CCN(c3ccc(C(=O)Nc4nc(-c5ccccc5Cl)cs4)cc3)CC2)N=N1` [compound 484, 4-(4-(2-(3-(but-3-yn-1-yl)-3H-diazirin-3-yl)ethyl)piperazin-1-yl)-N-(4-(2-chlorophenyl)thiazol-2-yl)benzamide hemiformate], the “COL1 Efficacy (LogEC50)” value is recorded as “+++ (+++: <−6)”.
As to `COc1ncc(C(=O)Nc2nc(-c3cccnc3OC)cs2)cn1` [compound 356, 2-methoxy-N-[4-(2-methoxy-3-pyridyl)thiazol-2-yl]pyrimidine-5-carboxamide], the “COL1 Efficacy (LogEC50)” value is “− (−: inactive)”.
As to `CC(C)=CC(=O)Nc1nc(-c2cc(Cl)sc2Cl)cs1` [compound 314], the “COL1 Efficacy (LogEC50)” value was “++ (++: −5 to −6)”.
For the compound `Cc1ncccc1-c1csc(NC(=O)c2cnc(N3CCOCC3)nc2)n1` [compound 374, N-[4-(2-methyl-3-pyridyl)thiazol-2-yl]-2-morpholino-pyrimidine-5-carboxamide], the “COL1 Efficacy (LogEC50)” value is reported as “+ (+: >−5)”.
As for `CS(=O)(=O)N1CCN(c2ccc(C(=O)Nc3nc(-c4ccccc4Cl)cs3)cc2)CC1` [compound 365, N-[4-(2-chlorophenyl)thiazol-2-yl]-4-(4-methylsulfonylpiperazin-1-yl)benzamide], the “COL1 Efficacy (LogEC50)” value was “+++ (+++: <−6)”.
The result for `O=C(Nc1nc(-c2ccccc2Cl)cs1)c1ccc(N2CCC[C@H](O)C2)cn1` [compound 488, (S)—N-(4-(2-chlorophenyl)thiazol-2-yl)-5-(3-hydroxypiperidin-1-yl)picolinamide] reads “+++ (+++: <−6)”.
